For this test, the target named is T1, Cps3D (Actinobacillus pleuropneumoniae, UniProt A0A2S0ETM3).
T1 construct: MBP-Cps3D-His6 (177 kDa), full-length, tags kept, expressed in E. coli M15[pREP4]
The experiment in a line: HPLC-AEC of donor consumption, PAGE and NMR of polymer. It counts as biochemical. The settings on record: 20 mM Tris pH 8.0, 10 mM MgCl2, 1 mM DTT, 37 °C; no primer; with UDP-Gal.

T1 sequence (A0A2S0ETM3 entry or part of it): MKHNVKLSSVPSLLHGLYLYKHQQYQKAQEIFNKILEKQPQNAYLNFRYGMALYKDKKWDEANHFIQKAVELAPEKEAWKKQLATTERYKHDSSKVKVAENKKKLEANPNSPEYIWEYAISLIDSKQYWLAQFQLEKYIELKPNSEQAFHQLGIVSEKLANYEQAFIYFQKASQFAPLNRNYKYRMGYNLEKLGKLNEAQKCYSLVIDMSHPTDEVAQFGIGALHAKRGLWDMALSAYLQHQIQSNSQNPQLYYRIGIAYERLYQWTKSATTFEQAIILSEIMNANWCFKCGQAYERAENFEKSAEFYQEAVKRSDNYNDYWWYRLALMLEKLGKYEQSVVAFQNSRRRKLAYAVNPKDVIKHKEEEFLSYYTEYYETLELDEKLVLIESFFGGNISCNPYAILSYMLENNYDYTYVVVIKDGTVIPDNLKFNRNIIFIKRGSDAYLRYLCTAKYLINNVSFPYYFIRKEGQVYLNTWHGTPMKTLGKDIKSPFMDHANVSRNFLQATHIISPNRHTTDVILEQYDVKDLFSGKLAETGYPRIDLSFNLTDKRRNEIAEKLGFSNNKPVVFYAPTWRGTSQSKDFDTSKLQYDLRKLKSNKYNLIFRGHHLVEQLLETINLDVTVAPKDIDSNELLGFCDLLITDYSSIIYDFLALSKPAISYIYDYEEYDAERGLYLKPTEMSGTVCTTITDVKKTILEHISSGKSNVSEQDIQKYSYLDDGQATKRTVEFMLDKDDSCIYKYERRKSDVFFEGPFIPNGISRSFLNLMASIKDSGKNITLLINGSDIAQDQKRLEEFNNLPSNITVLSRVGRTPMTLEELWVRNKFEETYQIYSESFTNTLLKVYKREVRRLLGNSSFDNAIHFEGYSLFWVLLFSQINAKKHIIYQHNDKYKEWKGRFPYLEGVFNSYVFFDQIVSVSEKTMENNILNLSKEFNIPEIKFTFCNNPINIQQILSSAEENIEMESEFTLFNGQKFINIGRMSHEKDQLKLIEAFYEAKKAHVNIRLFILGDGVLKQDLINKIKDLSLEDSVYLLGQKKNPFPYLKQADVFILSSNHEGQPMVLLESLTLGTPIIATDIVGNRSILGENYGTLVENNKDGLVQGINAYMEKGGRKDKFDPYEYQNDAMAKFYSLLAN

With `Nc1ccn([C@@H]2O[C@H](COP(=O)(O)OP(=O)(O)OC[C@H](O)CO)[C@@H](O)[C@H]2O)c(=O)n1` (racemic) [CDP-glycerol], the “HPLC-AEC of donor consumption, PAGE and NMR of polymer” value is recorded as “both enantiomers are substrates for the enzymes as shown by the complete consumption of CDP-glycerol”.

For the origin of these results see article PMC5974469, “A New Family of Capsule Polymerases Generates Teichoic Acid-Like Capsule Polymers in Gram-Negative Pathogens” (mBio, 2018).
